Source: patent publication US20100204148A1, “(D-LEU7 ) -HISTRELIN AS A THERAPEUTIC AGENT” (priority 2007, published 2010)

Columns and labels:
HIV-1IIIB = test: HIV-1 antiviral assay (CPE reduction) in CEM-SS cells; assay type: cell-based; conditions: peptide 10 micrograms per ml; 6 days post-infection; MTS
HCMV strain AD169 = test: HCMV plaque reduction assay in MRC-5 cells; assay type: cell-based; conditions: HCMV in MRC-5 cells; peptide 10 micrograms per ml; 7-10 days
Description: Ganciclovir was used as positive control.

Pseudomonas aeruginosa = assay type: cell-based; conditions: 10 micrograms per ml
Streptococcus pneumoniae = assay type: cell-based; conditions: 10 micrograms per ml
Human A549 cells [1] = test: Propidium iodide cell cycle assay; assay type: cell-based; conditions: 10 micrograms per ml, 24 hours, FACS
Description: The cell cycle consists of four distinct phases: […]

RAW 264.7 cells = test: Phagocytosis assay (Fluorescein-labeled Escherichia coli); assay type: cell-based, mouse; conditions: 10 micrograms per ml, flow cytometry
Human A549 cells [2] = test: Apoptosis induction assay (Annexin-5); assay type: cell-based; conditions: 10 micrograms per ml, 24 hours
Description: Human A549 cells (carcinomic human alveolar basal epithelial cells) were utilized in the experiments employing the Annexin-5 apoptosis assay.

Human A549 cells [3] = test: Apoptosis prevention assay (C2 ceramide, Annexin-5); assay type: cell-based; conditions: 30 min pretreatment with 10 micrograms per ml
[4] = test system: spleen cells of Ovalbumin-immunized Balb/c mice; test: Th1/Th2 cytokine profiling assay; assay type: cell-based, mouse; conditions: 10 micrograms per ml; Ovalbumin restimulation; 72 hours
[5] = test system: macrophages from human PBMC; test: TNF alpha production assay (LPS-stimulated macrophages, ELISA); assay type: cell-based; conditions: 10 micrograms per ml, lipopolysaccharide 200 ng/ml, overnight
Description: Not stimulated macrophages served as negative background control.

[6] = test system: Primary Human endothelial cells (HUVEC); test: Endothelial cell migration assay; assay type: cell-based; conditions: 10 micrograms per ml, 22 hours
HUVEC = test: Endothelial tube formation assay; assay type: cell-based, human; conditions: 10 micrograms per ml, 20 hours
Description: Positive control was vehicle only.

MRSA = conditions: 10 micrograms per ml
in vitro [7] = conditions: human, CEM-SS cells
in vitro [8] = conditions: human
in vitro [9] = conditions: human, MRC-5 cells (human embryonal lung fibroblasts)
Description: The following day, peptide were added and tested in duplicates.

[10] = test system: Human Peripheral Blood Mononuclear Cells (PBMC); test: T cell proliferation assay (PHA, 3H-thymidine); conditions: 10 micrograms per ml
[11] = test system: Human Peripheral Blood Mononuclear Cells (PBMC); test: B cell proliferation assay (SAC plus IL-2, 3H-thymidine); conditions: 10 micrograms per ml
[12] = test system: hepatitis B virus (HBV) ayw strain; test: HBV experimental assay system (secreted HBV DNA, TaqMan PCR); conditions: HepG2-2.2.15; peptide 10 micrograms per ml; six days; HBV DNA in supernatant

**Q.** For `CCNC(=O)[C@@H]1CCCN1C(=O)[C@H](CCCNC(=N)N)NC(=O)[C@@H](CC(C)C)NC(=O)[C@@H](Cc1cn(Cc2ccccc2)cn1)NC(=O)[C@H](Cc1ccc(O)cc1)NC(=O)[C@H](CO)NC(=O)[C@H](Cc1c[nH]c2ccccc12)NC(=O)[C@H](Cc1c[nH]cn1)NC(=O)[C@@H]1CCC(=O)N1` [D-Leu^7-Histrelin, Pyr-His-Trp-Ser-Tyr-D-His(Bzl)-D-Leu-Arg-Pro-NHEt], which “% CPE reduction in HIV-1 infected CEM-SS cells” value (HIV-1IIIB) is on record?
**A.** 0.0%

**Q.** What about the “% plaque reduction” value (HCMV strain AD169) of the same compound?
**A.** 2.5%

**Q.** What about the “% inhibition” value (Pseudomonas aeruginosa) of the same compound?
**A.** 0.0%

**Q.** What about the “% inhibition” value (Streptococcus pneumoniae) of the same compound?
**A.** 100.0%

**Q.** What about the “Cell cycle analysis G0/G1” value (Human A549 cells [1]) of the same compound?
**A.** 58.9

**Q.** What about the “Cell cycle analysis G2/M” value (Human A549 cells [1]) of the same compound?
**A.** 9.7

**Q.** And the “Cell cycle analysis S” value (Human A549 cells [1])?
**A.** 31.4

**Q.** And the “% of control phagocytosis” value (RAW 264.7 cells)?
**A.** 102.9%

**Q.** And the “% of induction” value (Human A549 cells [2])?
**A.** 4.3%

**Q.** What about the “% prevention of ceramide induced apoptosis” value (Human A549 cells [3]) of the same compound?
**A.** 0.0%

**Q.** What about the “IFNγ spleen cells; TH1 response (% of control)” value [4] of the same compound?
**A.** 69.2 % of control

**Q.** And the “IL-2 spleen cells (% of control)” value [4]?
**A.** 155.8 % of control

**Q.** What about the “IL-4 spleen cells; TH2 response (% of control)” value [4] of the same compound?
**A.** 235.7 % of control

**Q.** What about the “IL-5 spleen cells; TH2 response (% of control)” value [4] of the same compound?
**A.** 93.0 % of control

**Q.** What about the “TNF-a spleen cells; TH1 response (% of control)” value [4] of the same compound?
**A.** 116.4 % of control

**Q.** And the “% of LPS induction” value [5]?
**A.** 111.5%

**Q.** What about the “% inhibition of migration” value [6] of the same compound?
**A.** 8%

**Q.** What about the “% inhibition of tube formation” value (HUVEC) of the same compound?
**A.** 4%

**Q.** And the “% inhibition” value (MRSA)?
**A.** 0.0%

**Q.** And the viability at 10 micrograms per ml (in vitro [7])?
**A.** 100%

**Q.** And the viability at 144 h, 10 micrograms per ml (in vitro [8])?
**A.** 91.4%

**Q.** And the viability at 144 h (in vitro [9])?
**A.** 100%

**Q.** And the “% of PHA induced control” value [10]?
**A.** 96.2%

**Q.** And the “% of SAC/IL2 induced control” value [11]?
**A.** 92.6%

**Q.** What about the “% inhibition of HBV replication in HEP G2 cells” value [12] of the same compound?
**A.** 61.6%
